The source of these data is patent publication US6410249B1, “Odorant receptors” (priority 1999, dated 2002).

Each structure is given as a SMILES string.

The target of assay [1] is T1, receptor 5.24 (Carassius auratus, UniProt Q9PW88).
T1 construct: The receptor 5.24 full length cDNA detects 1-2 bands in genomic DNA blots; expressed in transfected cells; host or cells: HEK 293 cells expressing SV40 large T antigen (293-TSA)
T1 sequence (Q9PW88 25-877): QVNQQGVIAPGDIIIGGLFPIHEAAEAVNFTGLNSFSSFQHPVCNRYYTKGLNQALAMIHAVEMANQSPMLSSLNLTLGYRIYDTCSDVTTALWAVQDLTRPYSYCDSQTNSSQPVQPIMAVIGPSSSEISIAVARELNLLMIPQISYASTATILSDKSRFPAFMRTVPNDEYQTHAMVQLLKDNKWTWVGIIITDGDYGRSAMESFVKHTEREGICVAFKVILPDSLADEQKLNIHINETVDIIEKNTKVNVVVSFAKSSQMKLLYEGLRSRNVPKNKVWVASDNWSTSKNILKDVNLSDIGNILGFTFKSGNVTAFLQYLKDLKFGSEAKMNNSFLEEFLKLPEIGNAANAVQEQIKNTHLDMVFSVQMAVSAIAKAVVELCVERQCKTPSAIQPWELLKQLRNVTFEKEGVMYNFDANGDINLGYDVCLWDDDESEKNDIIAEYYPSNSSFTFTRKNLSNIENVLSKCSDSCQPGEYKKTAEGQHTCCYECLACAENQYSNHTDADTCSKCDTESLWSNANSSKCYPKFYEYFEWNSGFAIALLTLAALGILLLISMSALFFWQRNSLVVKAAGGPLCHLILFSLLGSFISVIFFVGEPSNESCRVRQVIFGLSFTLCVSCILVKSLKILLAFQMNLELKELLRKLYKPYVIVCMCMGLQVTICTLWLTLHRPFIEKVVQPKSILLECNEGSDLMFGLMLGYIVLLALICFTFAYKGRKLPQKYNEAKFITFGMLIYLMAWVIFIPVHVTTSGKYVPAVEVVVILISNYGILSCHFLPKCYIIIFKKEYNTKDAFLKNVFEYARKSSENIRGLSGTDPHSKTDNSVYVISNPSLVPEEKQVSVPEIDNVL
The experiment in a line: IP3 accumulation in receptor 5.24-expressing HEK 293 cells. Format: cell-based, goldfish. The conditions noted are these: varying concentrations. From the text:
(§1) High-Affinity Binding of Radiolabeled L-Arginine to the Cloned Goldfish Odorant Receptor. To determine the affinity of the cloned goldfish amino acid receptor for basic amino acids, we characterized the ligand-receptor interaction by radiolabeled ligand binding to receptors expressed in mammalian cells. Human embryonic kidney (HEK) 293 cells were transfected with expression plasmids containing the receptor 5.24 cDNA insert. […] We next wished to determine what second messenger pathway receptor 5.24 couples to in HEK 293 cells. Control cells or cells expressing receptor 5.24 were exposed to varying concentrations of arginine and assayed for the accumulation of IP3 and cAMP.
(§2) IP3 and cAMP Measurements. For measurements of IP3 and cAMP, cell lines 5.24-20 and 2.2-9 (negative control) were plated at densities of 3.5×10^5 cells/well in 24 well plates and incubated overnight in DMEM containing 10% FBS. All subsequent manipulations prior to reaction termination were performed at 37° C. in 5% CO2. […] IP3 levels were determined by a radioreceptor competition assay (Dupont NEN). For cAMP measurements, after the 3 hour amino acid-free preincubation cells were washed once with PBS, preincubated for 15 min in PBS containing 0.5 mM IBMX, and exposed to odorants in 400 μl PBS/0.5 mM IBMX for 30 min. cAMP levels were determined by radioimmunoassay (DuPont NEN).

Assay [2] relates to goldfish olfactory system. To be noted: cited from earlier work.
The target of assay [3] is T1, receptor 5.24. The experiment in a line: cAMP accumulation in receptor 5.24-expressing HEK 293 cells. Format: cell-based, goldfish. To be noted: 0.1 mM or 10 mM.
Excerpt: as §1, §2
(In general: Cyclic AMP is a second messenger, typically raised through Gs and lowered through Gi signalling.)

As to `N=C(N)NCCC[C@H](N)C(=O)O` [L-Arginine], on receptor 5.24 [1], the “IP3 accumulation, in words” value is “specific increase in IP3”. Besides, the “in vivo threshold sensitivity” value in assay [2] is on record as “ca. 1 nM”. Moreover, on receptor 5.24 [3], the “change in cAMP levels, in words” value is reported as “does not cause a detectable change”.
